# Experimental data from patent US20260200946A1, “KRAS(G12V) INHIBITORS” (Ranok Therapeutics (Hangzhou) Co. Ltd., priority 2022, published 2026).
# Test system: SW620 cells
# Assay: Cancer cell line proliferation (CellTiter-Glo), SW620
# Type: cell-based
# Conditions: Homo sapiens, SW-620, SW620 colorectal adenocarcinoma, homozygous G12V, 72 hr
# Description: Cell lines were cultured essentially according to ATCC recommendations. SW620 and NCIH727 cells were plated in 384-well tissue culture plates at 1,000 cells/well and incubated at 37° C./5% CO2 for 72 hr in 40 μl of media. […] Each cell line was then treated with test compounds at various concentrations with a final concentration of 0.5% DMSO/well, and then incubated at 37° C./5% CO2 for 72 hr. 40 μl of CellTiter-Glo® Reagent (Promega Corporation, Madison, WI) was added to each well and processed according manufacturer's protocol. Results were analyzed and IC50 values were calculated in GraphPad 8.0 software.
row,SMILES,EC50 [nM]
1,C#Cc1c(F)ccc2cc(O)cc(-c3ncc4c(N5CC6CCC(C5)N6C(=O)CCC#N)nc(OCC5(CN6CCC(F)CC6)CC5)nc4c3F)c12 [Example 3],100 to 1000
2,C#Cc1c(F)ccc2cc(O)cc(-c3ncc4c(N5CC6CCC(C5)N6C(=O)CC(C)(C)C)nc(OCC5(CN6CCC(F)CC6)CC5)nc4c3F)c12 [Example 5],> 1000
3,C#Cc1c(F)ccc2cc(O)cc(-c3ncc4c(N5CC6CCC(C5)N6C(=O)NC(C)(C)C)nc(OCC5(CN6CCC(F)CC6)CC5)nc4c3F)c12 [Example 6],100 to 1000
4,C#Cc1c(F)ccc2cc(O)cc(-c3ncc4c(N5CC6CCC(C5)N6C(=O)NC(C)C)nc(OCC5(CN6CCC(F)CC6)CC5)nc4c3F)c12 [Example 7],> 1000
5,C#Cc1c(F)ccc2cc(O)cc(-c3ncc4c(N5CC6CCC(C5)N6C(=O)N(C)C)nc(OCC5(CN6CCC(F)CC6)CC5)nc4c3F)c12 [Example 8],> 1000
6,C#Cc1c(F)ccc2cc(O)cc(-c3ncc4c(N5CC6CCC(C5)N6C(=O)OCC)nc(OCC5(CN6CCC(F)CC6)CC5)nc4c3F)c12 [Example 11],100 to 1000
7,C#Cc1c(F)ccc2cc(O)cc(-c3ncc4c(N5CC6CCC(C5)N6S(=O)(=O)CC(C)C)nc(OCC5(CN6CCC(F)CC6)CC5)nc4c3F)c12 [Example 14],100 to 1000
8,C#Cc1c(F)ccc2cc(O)cc(-c3ncc4c(N5CC6CCC(C5)N6C(=O)OCC(C)C)nc(OCC5(CN6CCC(F)CC6)CC5)nc4c3F)c12 [Example 16],> 1000
9,C#Cc1c(F)ccc2cc(O)cc(-c3ncc4c(N5CC6CCC(C5)N6C(=O)NC(=O)C(C)(C)C)nc(OCC5(CN6CCC(F)CC6)CC5)nc4c3F)c12 [Example 17],> 1000
10,C#Cc1c(F)ccc2cc(O)cc(-c3ncc4c(N5CC6CCC(C5)N6C(=O)N5CCC5)nc(OCC5(CN6CCC(F)CC6)CC5)nc4c3F)c12 [Example 18],> 1000
11,C#Cc1c(F)ccc2cc(O)cc(-c3nc(OC)c4c(N5CC6CCC(C5)N6C(=O)NC(C)(C)C)nc(OCC5(CN6CCC(F)CC6)CC5)nc4c3F)c12 [Example 21],100 to 1000
12,C#Cc1c(F)ccc2cc(O)cc(-c3ncc4c(N5CC6CCC(C5)N6C(=O)C5(C(F)(F)F)CC5)nc(OCC5(CN6CCC(F)CC6)CC5)nc4c3F)c12 [Example 22],> 1000
13,C#Cc1c(F)ccc2cc(O)cc(-c3nc(OC)c4c(N5CC6CCC(C5)N6C(=O)NC#N)nc(OCC5(CN6CCC(F)CC6)CC5)nc4c3F)c12 [Example 23],> 1000
14,C#Cc1c(F)ccc2cc(O)cc(-c3ncc4c(N5CC6CCC(C5)N6C(=O)N5CC(OC)C5)nc(OCC5(CN6CCC(F)CC6)CC5)nc4c3F)c12 [Example 24],> 1000
15,C#Cc1c(F)ccc2cc(O)cc(-c3ncc4c(N5CC6CCC(C5)N6S(=O)(=O)NC(C)C)nc(OCC5(CN6CCC(F)CC6)CC5)nc4c3F)c12 [Example 25],> 1000
16,C#Cc1c(F)ccc2cc(O)cc(-c3nc(OC)c4c(N5CC6CCC(C5)N6C(=O)NCC(F)(F)F)nc(OCC5(CN6CCC(F)CC6)CC5)nc4c3F)c12 [Example 26],> 1000
17,C#Cc1c(F)ccc2cc(O)cc(-c3ncc4c(N5CC6CCC(C5)N6C(=O)CC5CC5)nc(OCC5(CN6CCC(F)CC6)CC5)nc4c3F)c12 [Example 27],> 1000
18,C#Cc1c(F)ccc2cc(O)cc(-c3ncc4c(N5CC6CCC(C5)N6C(=O)c5nnn[nH]5)nc(OCC5(CN6CCC(F)CC6)CC5)nc4c3F)c12 [Example 28],> 1000

# Test system: NCIH727 cells
# Assay: Cancer cell line proliferation (CellTiter-Glo), NCI-H727
# Type: cell-based
# Conditions: Homo sapiens, 72 h, NCIH727 lung carcinoid, heterozygous G12V
# Summary of the method: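 NCI-H727 cells (1,000/well) were grown 72 h at 37 °C/5% CO2, then exposed to compound at various concentrations (0.5% DMSO final) for a further 72 h. Viability was read by CellTiter-Glo luminescence, and IC50 values were calculated from the dose-response.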
row,SMILES,EC50 [nM]
1,C#Cc1c(F)ccc2cc(O)cc(-c3ncc4c(N5CC6CCC(C5)N6C(=O)CCC#N)nc(OCC5(CN6CCC(F)CC6)CC5)nc4c3F)c12 [Example 3],> 1000
2,C#Cc1c(F)ccc2cc(O)cc(-c3ncc4c(N5CC6CCC(C5)N6C(=O)CC(C)(C)C)nc(OCC5(CN6CCC(F)CC6)CC5)nc4c3F)c12 [Example 5],> 1000
3,C#Cc1c(F)ccc2cc(O)cc(-c3ncc4c(N5CC6CCC(C5)N6C(=O)NC(C)(C)C)nc(OCC5(CN6CCC(F)CC6)CC5)nc4c3F)c12 [Example 6],100 to 1000
4,C#Cc1c(F)ccc2cc(O)cc(-c3ncc4c(N5CC6CCC(C5)N6C(=O)NC(C)C)nc(OCC5(CN6CCC(F)CC6)CC5)nc4c3F)c12 [Example 7],> 1000
5,C#Cc1c(F)ccc2cc(O)cc(-c3ncc4c(N5CC6CCC(C5)N6C(=O)N(C)C)nc(OCC5(CN6CCC(F)CC6)CC5)nc4c3F)c12 [Example 8],> 1000
6,C#Cc1c(F)ccc2cc(O)cc(-c3ncc4c(N5CC6CCC(C5)N6C(=O)OCC)nc(OCC5(CN6CCC(F)CC6)CC5)nc4c3F)c12 [Example 11],100 to 1000
7,C#Cc1c(F)ccc2cc(O)cc(-c3ncc4c(N5CC6CCC(C5)N6S(=O)(=O)CC(C)C)nc(OCC5(CN6CCC(F)CC6)CC5)nc4c3F)c12 [Example 14],> 1000
8,C#Cc1c(F)ccc2cc(O)cc(-c3ncc4c(N5CC6CCC(C5)N6C(=O)OCC(C)C)nc(OCC5(CN6CCC(F)CC6)CC5)nc4c3F)c12 [Example 16],> 1000
9,C#Cc1c(F)ccc2cc(O)cc(-c3ncc4c(N5CC6CCC(C5)N6C(=O)NC(=O)C(C)(C)C)nc(OCC5(CN6CCC(F)CC6)CC5)nc4c3F)c12 [Example 17],> 1000
10,C#Cc1c(F)ccc2cc(O)cc(-c3ncc4c(N5CC6CCC(C5)N6C(=O)N5CCC5)nc(OCC5(CN6CCC(F)CC6)CC5)nc4c3F)c12 [Example 18],> 1000
11,C#Cc1c(F)ccc2cc(O)cc(-c3nc(OC)c4c(N5CC6CCC(C5)N6C(=O)NC(C)(C)C)nc(OCC5(CN6CCC(F)CC6)CC5)nc4c3F)c12 [Example 21],100 to 1000
12,C#Cc1c(F)ccc2cc(O)cc(-c3ncc4c(N5CC6CCC(C5)N6C(=O)C5(C(F)(F)F)CC5)nc(OCC5(CN6CCC(F)CC6)CC5)nc4c3F)c12 [Example 22],> 1000
13,C#Cc1c(F)ccc2cc(O)cc(-c3nc(OC)c4c(N5CC6CCC(C5)N6C(=O)NC#N)nc(OCC5(CN6CCC(F)CC6)CC5)nc4c3F)c12 [Example 23],> 1000
14,C#Cc1c(F)ccc2cc(O)cc(-c3ncc4c(N5CC6CCC(C5)N6C(=O)N5CC(OC)C5)nc(OCC5(CN6CCC(F)CC6)CC5)nc4c3F)c12 [Example 24],> 1000
15,C#Cc1c(F)ccc2cc(O)cc(-c3ncc4c(N5CC6CCC(C5)N6S(=O)(=O)NC(C)C)nc(OCC5(CN6CCC(F)CC6)CC5)nc4c3F)c12 [Example 25],> 1000
16,C#Cc1c(F)ccc2cc(O)cc(-c3nc(OC)c4c(N5CC6CCC(C5)N6C(=O)NCC(F)(F)F)nc(OCC5(CN6CCC(F)CC6)CC5)nc4c3F)c12 [Example 26],100 to 1000
17,C#Cc1c(F)ccc2cc(O)cc(-c3ncc4c(N5CC6CCC(C5)N6C(=O)CC5CC5)nc(OCC5(CN6CCC(F)CC6)CC5)nc4c3F)c12 [Example 27],> 1000
18,C#Cc1c(F)ccc2cc(O)cc(-c3ncc4c(N5CC6CCC(C5)N6C(=O)c5nnn[nH]5)nc(OCC5(CN6CCC(F)CC6)CC5)nc4c3F)c12 [Example 28],> 1000

# Target: T1, KRAS(G12V)/SOS1 (Homo sapiens, UniProt P01116, G12V)
# T1 construct: purchased Cisbio 63ADK000CB18PEH
# Assay: KRAS(G12V)/SOS1 homogeneous time-resolved fluorescence (HTRF) assay
# Type: binding
# Conditions: absence of GTP; 4° C., 3 hours; read-out: HTRF of KRASG12V-SOS1
# Description: Binding of test compounds to KRAS(G12V) target protein, which in turn blocks KRAS(G12V) interaction with the SOS1 protein, was measured in the absences of GTP by homogeneous time-resolved fluorescence using the KRAS-G12V/SOS1 Binding Assay Kit (Cisbio, 63ADK000CB18PEH), following the manufacturer's instructions, except as noted. 3-fold serial dilutions of each test compound were prepared ranging from 20 µM to 1.02 nM. The test compound was mixed and incubated with reaction components, incubated in a sealed plate at 4° C. for 3 hours and fluorescence was measured using a PerkinElmer Envision plate reader. The KRAS(G12V)-SOS1 IC50 values (the concentration of 50% of the maximal inhibition) were calculated using GraphPad Prism 8.0 software.
# T1 sequence (P01116 1-188 isoform P01116-2 G12V): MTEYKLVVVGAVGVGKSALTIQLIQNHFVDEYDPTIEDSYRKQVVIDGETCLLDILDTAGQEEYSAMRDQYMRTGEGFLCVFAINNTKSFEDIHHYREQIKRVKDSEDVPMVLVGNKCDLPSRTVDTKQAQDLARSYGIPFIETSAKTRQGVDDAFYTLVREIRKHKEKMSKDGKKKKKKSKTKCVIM
row,SMILES,IC50 [nM]
1,C#Cc1c(F)ccc2cc(O)cc(-c3ncc4c(N5CC6CCC(C5)N6C(=O)CCC#N)nc(OCC5(CN6CCC(F)CC6)CC5)nc4c3F)c12 [Example 3],< 100
2,C#Cc1c(F)ccc2cc(O)cc(-c3ncc4c(N5CC6CCC(C5)N6C(=O)CC(C)(C)C)nc(OCC5(CN6CCC(F)CC6)CC5)nc4c3F)c12 [Example 5],100 to 1000
3,C#Cc1c(F)ccc2cc(O)cc(-c3ncc4c(N5CC6CCC(C5)N6C(=O)NC(C)(C)C)nc(OCC5(CN6CCC(F)CC6)CC5)nc4c3F)c12 [Example 6],< 100
4,C#Cc1c(F)ccc2cc(O)cc(-c3ncc4c(N5CC6CCC(C5)N6C(=O)NC(C)C)nc(OCC5(CN6CCC(F)CC6)CC5)nc4c3F)c12 [Example 7],< 100
5,C#Cc1c(F)ccc2cc(O)cc(-c3ncc4c(N5CC6CCC(C5)N6C(=O)N(C)C)nc(OCC5(CN6CCC(F)CC6)CC5)nc4c3F)c12 [Example 8],< 100
6,C#Cc1c(F)ccc2cc(O)cc(-c3ncc4c(N5CC6CCC(C5)N6C(=O)OCC)nc(OCC5(CN6CCC(F)CC6)CC5)nc4c3F)c12 [Example 11],100 to 1000
7,C#Cc1c(F)ccc2cc(O)cc(-c3ncc4c(N5CC6CCC(C5)N6S(=O)(=O)CC(C)C)nc(OCC5(CN6CCC(F)CC6)CC5)nc4c3F)c12 [Example 14],100 to 1000
8,C#Cc1c(F)ccc2cc(O)cc(-c3ncc4c(N5CC6CCC(C5)N6C(=O)OCC(C)C)nc(OCC5(CN6CCC(F)CC6)CC5)nc4c3F)c12 [Example 16],100 to 1000
9,C#Cc1c(F)ccc2cc(O)cc(-c3ncc4c(N5CC6CCC(C5)N6C(=O)NC(=O)C(C)(C)C)nc(OCC5(CN6CCC(F)CC6)CC5)nc4c3F)c12 [Example 17],100 to 1000
10,C#Cc1c(F)ccc2cc(O)cc(-c3ncc4c(N5CC6CCC(C5)N6C(=O)N5CCC5)nc(OCC5(CN6CCC(F)CC6)CC5)nc4c3F)c12 [Example 18],100 to 1000
11,C#Cc1c(F)ccc2cc(O)cc(-c3nc(OC)c4c(N5CC6CCC(C5)N6C(=O)NC(C)(C)C)nc(OCC5(CN6CCC(F)CC6)CC5)nc4c3F)c12 [Example 21],< 100
12,C#Cc1c(F)ccc2cc(O)cc(-c3ncc4c(N5CC6CCC(C5)N6C(=O)C5(C(F)(F)F)CC5)nc(OCC5(CN6CCC(F)CC6)CC5)nc4c3F)c12 [Example 22],100 to 1000
13,C#Cc1c(F)ccc2cc(O)cc(-c3nc(OC)c4c(N5CC6CCC(C5)N6C(=O)NC#N)nc(OCC5(CN6CCC(F)CC6)CC5)nc4c3F)c12 [Example 23],100 to 1000
14,C#Cc1c(F)ccc2cc(O)cc(-c3ncc4c(N5CC6CCC(C5)N6C(=O)N5CC(OC)C5)nc(OCC5(CN6CCC(F)CC6)CC5)nc4c3F)c12 [Example 24],100 to 1000
15,C#Cc1c(F)ccc2cc(O)cc(-c3ncc4c(N5CC6CCC(C5)N6S(=O)(=O)NC(C)C)nc(OCC5(CN6CCC(F)CC6)CC5)nc4c3F)c12 [Example 25],100 to 1000
16,C#Cc1c(F)ccc2cc(O)cc(-c3nc(OC)c4c(N5CC6CCC(C5)N6C(=O)NCC(F)(F)F)nc(OCC5(CN6CCC(F)CC6)CC5)nc4c3F)c12 [Example 26],< 100
17,C#Cc1c(F)ccc2cc(O)cc(-c3ncc4c(N5CC6CCC(C5)N6C(=O)CC5CC5)nc(OCC5(CN6CCC(F)CC6)CC5)nc4c3F)c12 [Example 27],100 to 1000
18,C#Cc1c(F)ccc2cc(O)cc(-c3ncc4c(N5CC6CCC(C5)N6C(=O)c5nnn[nH]5)nc(OCC5(CN6CCC(F)CC6)CC5)nc4c3F)c12 [Example 28],100 to 1000
